Values after ≈ are worked out from the molar mass of the structure shown. Values belong to the molecule of their own block, whether it stands above or below them.
Legend:
[1] = test system: NB4 (acute promyelocytic leukemia, AML); assay: Leukemia cell growth inhibition, MTT, 72 h (Example 5); format: cell-based, human; conditions: Homo sapiens; 72 h, MTT
How it was run: (§1)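 An MTT read-out of viable cell concentration follows 72 h incubation (37° C, 5% CO2) of 6000 cells/well in 10% FBS-supplemented 1640 medium with the 5-substituted derivatives at varying concentrations.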

[2] = test system: K562/adr (drug-resistant, chronic myeloid leukemia, CML); assay: as above; format: cell-based, human; conditions: Homo sapiens, K562/Adr; 72 h, MTT
How it was run: as §1

[3] = test system: H9 (acute lymphoblastic leukemia, ALL); assay: as above; format: cell-based, human; conditions: for IC50 / IC90: Homo sapiens, 72 h, MTT
How it was run: as §1

[4] = test system: Jurkat (acute lymphoblastic leukemia, ALL); assay: as above; format: cell-based, human; conditions: for IC50 / IC90: Homo sapiens, Jurkat, 72 h, MTT
How it was run: as §1

[5] = test system: Kasumi-1 (acute myeloid leukemia M2 type, AML-M2); assay: as above; format: cell-based, human; conditions: Homo sapiens, Kasumi 1
How it was run: as §1

MG63 (osteosarcoma) = assay: Solid tumor cell growth inhibition, MTT, 72 h (Example 7); format: cell-based, human; conditions: Homo sapiens; 72 h, MTT, MG-63
How it was run: (§2)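 Viability (%) relative to compound-free controls (100%) comes from MTT measurement following 72 h drug exposure at 37 °C, 5% CO2. Seeding density: 4000 cells/well, 24 h before dosing.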

PC-3 (prostate cancer) = assay: as above; format: cell-based, human; conditions: Homo sapiens; 72 h, MTT, PC-3
How it was run: as §2

[6] = test system: PANC-1 (pancreatic cancer); assay: as above; format: cell-based, human; conditions: Homo sapiens; 72 h, MTT, PANC-1
How it was run: as §2

[7] = test system: Hep-2 (laryngeal carcinoma); assay: as above; format: cell-based, human; conditions: Homo sapiens; 72 h, MTT, Hep 2
How it was run: as §2

[8] = test system: CaES-17 (esophageal cancer cell); assay: as above; format: cell-based, human; conditions: Homo sapiens, CaEs17; 72 h, MTT, CAES-17
How it was run: as §2

[9] = test system: RPMI8226 (multiple myeloma); assay: Multiple myeloma cell growth inhibition, MTT, 72 h (Example 6); format: cell-based, human; conditions: Homo sapiens, RPMI-8226; 72 h, MTT, RPMI8226
How it was run: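 Viability was read by MTT after 72 h of compound exposure at 37 °C, 5% CO2. Each well held 6000 RPMI8226 cells in 1640 medium containing 10% fetal bovine serum, with derivatives added at various concentrations.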

[10] = test system: Becap37 (human breast cancer cell); assay: Solid tumor cell growth inhibition, MTT, 72 h (Example 7); format: cell-based; conditions: Homo sapiens; 72 h, MTT, Becap-37
How it was run: as §2

[11] = test system: SK-OV-3 (ovarian cancer cell); assay: as above; format: cell-based; conditions: Homo sapiens
How it was run: as §2

[12] = test system: MGC 803 (human gastric cancer cell); assay: as above; format: cell-based; conditions: Homo sapiens
How it was run: as §2

[13] = test system: U87 MG (malignant glioma cell); assay: as above; format: cell-based; conditions: Homo sapiens, U-87 MG
How it was run: as §2

[14] = test system: RKO (human colon adenocarcinoma cell); assay: as above; format: cell-based; conditions: for IC50 / IC90: Homo sapiens, 72 h, MTT, RKO
How it was run: as §2

[15] = test system: CNE (nasopharyngeal carcinoma cell); assay: as above; format: cell-based; conditions: Homo sapiens
How it was run: as §2

[16] = test system: Huh7 (human liver cancer cell); assay: as above; format: cell-based; conditions: Homo sapiens; 72 h, MTT, Huh-7
How it was run: as §2

A549 (human lung cancer) = assay: as above; format: cell-based; conditions: Homo sapiens; 72 h, MTT, A549
How it was run: as §2

[17] = test system: Hela (human cervical cancer cell); assay: as above; format: cell-based; conditions: Homo sapiens; 72 h, MTT, Hela
How it was run: as §2

IC50 [1]: 1.8 µg/mL (≈ 2.44 µM)
IC90 [1]: 4.4 µg/mL (≈ 5.96 µM)
IC50 [2]: 1.46 µg/mL (≈ 1.98 µM)
IC90 [2]: 5.12 µg/mL (≈ 6.94 µM)
IC50 [3]: 1.54 µg/mL (≈ 2.09 µM)
IC90 [3]: 3.15 µg/mL (≈ 4.27 µM)
IC50 [4]: 2.09 µg/mL (≈ 2.83 µM)
IC90 [4]: 8 µg/mL (≈ 10.8 µM)
IC50 [5]: 0.84 µg/mL (≈ 1.14 µM)
IC90 [5]: 3.76 µg/mL (≈ 5.1 µM)
IC50 (MG63 (osteosarcoma)): 2.1 µg/mL (≈ 2.85 µM)
IC90 (MG63 (osteosarcoma)): 3.9 µg/mL (≈ 5.28 µM)
IC50 (PC-3 (prostate cancer)): 3.07 µg/mL (≈ 4.16 µM)
IC90 (PC-3 (prostate cancer)): 4.98 µg/mL (≈ 6.75 µM)
IC50 [6]: 2.99 µg/mL (≈ 4.05 µM)
IC90 [6]: 7.15 µg/mL (≈ 9.69 µM)
IC50 [7]: 9.63 µg/mL (≈ 13 µM)
IC90 [7]: 15.9 µg/mL (≈ 21.5 µM)
IC50 [8]: 3.13 µg/mL (≈ 4.24 µM)
IC90 [8]: 12.2 µg/mL (≈ 16.5 µM)
IC50 [9]: 0.15 µg/mL (≈ 0.203 µM)
IC90 [9]: 0.96 µg/mL (≈ 1.3 µM)
IC50 [10]: 2 µg/mL (≈ 2.71 µM)
IC90 [10]: 4 µg/mL (≈ 5.42 µM)
IC50 [11]: 6.8 µg/mL (≈ 9.21 µM)
IC90 [11]: > 16 µg/mL
IC50 [12]: 1.68 µg/mL (≈ 2.28 µM)
IC90 [12]: 4 µg/mL (≈ 5.42 µM)
IC50 [13]: 1.44 µg/mL (≈ 1.95 µM)
IC90 [13]: 5.39 µg/mL (≈ 7.3 µM)
IC50 [14]: 1.76 µg/mL (≈ 2.38 µM)
IC90 [14]: 3 µg/mL (≈ 4.07 µM)
IC50 [15]: 6.02 µg/mL (≈ 8.16 µM)
IC90 [15]: > 16 µg/mL
IC50 [16]: 1.52 µg/mL (≈ 2.06 µM)
IC90 [16]: 3.7 µg/mL (≈ 5.01 µM)
IC50 (A549 (human lung cancer)): 3.7 µg/mL (≈ 5.01 µM)
IC90 (A549 (human lung cancer)): 9.9 µg/mL (≈ 13.4 µM)
IC50 [17]: 2.49 µg/mL (≈ 3.37 µM)
IC90 [17]: 4.91 µg/mL (≈ 6.65 µM)
SMILES: COc1ccc2cc1Oc1ccc(cc1)C[C@H]1c3cc(c(OC)cc3CCN1C)Oc1c(OC)c(OC)c(CN3CCSCC3)c3c1[C@H](C2)N(C)CC3 [BS-TE-328]

IC50 [1]: 0.5 µg/mL (≈ 0.68 µM)
IC90 [1]: 1.4 µg/mL (≈ 1.9 µM)
IC50 [2]: 0.33 µg/mL (≈ 0.449 µM)
IC90 [2]: 2.4 µg/mL (≈ 3.27 µM)
IC50 [3]: 0.22 µg/mL (≈ 0.299 µM)
IC90 [3]: 1.71 µg/mL (≈ 2.33 µM)
IC50 [4]: 0.5 µg/mL (≈ 0.68 µM)
IC90 [4]: 4.5 µg/mL (≈ 6.12 µM)
IC50 [5]: 0.41 µg/mL (≈ 0.558 µM)
IC90 [5]: 2.28 µg/mL (≈ 3.1 µM)
IC50 (MG63 (osteosarcoma)): 0.8 µg/mL (≈ 1.09 µM)
IC90 (MG63 (osteosarcoma)): 1.9 µg/mL (≈ 2.59 µM)
IC50 (PC-3 (prostate cancer)): 1.85 µg/mL (≈ 2.52 µM)
IC90 (PC-3 (prostate cancer)): 2.5 µg/mL (≈ 3.4 µM)
IC50 [6]: 1.88 µg/mL (≈ 2.56 µM)
IC90 [6]: 9.54 µg/mL (≈ 13 µM)
IC50 [7]: 2.4 µg/mL (≈ 3.27 µM)
IC90 [7]: 9.39 µg/mL (≈ 12.8 µM)
IC50 [8]: 1.75 µg/mL (≈ 2.38 µM)
IC90 [8]: 10.5 µg/mL (≈ 14.2 µM)
IC50 [9]: 0.05 µg/mL (≈ 0.068 µM)
IC90 [9]: 1.5 µg/mL (≈ 2.04 µM)
IC50 [10]: 1.2 µg/mL (≈ 1.63 µM)
IC90 [10]: 3.7 µg/mL (≈ 5.03 µM)
IC50 [11]: 1.62 µg/mL (≈ 2.2 µM)
IC90 [11]: 3.22 µg/mL (≈ 4.38 µM)
IC50 [12]: 0.8 µg/mL (≈ 1.09 µM)
IC90 [12]: 5.17 µg/mL (≈ 7.03 µM)
IC50 [13]: 0.33 µg/mL (≈ 0.449 µM)
IC90 [13]: 1.55 µg/mL (≈ 2.11 µM)
IC50 [14]: 0.12 µg/mL (≈ 0.163 µM)
IC90 [14]: 1.02 µg/mL (≈ 1.39 µM)
IC50 [15]: 0.64 µg/mL (≈ 0.871 µM)
IC90 [15]: 3.55 µg/mL (≈ 4.83 µM)
IC50 [16]: 0.93 µg/mL (≈ 1.27 µM)
IC90 [16]: 2.4 µg/mL (≈ 3.27 µM)
IC50 (A549 (human lung cancer)): 1.7 µg/mL (≈ 2.31 µM)
IC90 (A549 (human lung cancer)): 9.2 µg/mL (≈ 12.5 µM)
IC50 [17]: 1.2 µg/mL (≈ 1.63 µM)
IC90 [17]: 6 µg/mL (≈ 8.16 µM)
SMILES: COc1ccc2cc1Oc1ccc(cc1)C[C@H]1c3cc(c(OC)cc3CCN1C)Oc1c(OC)c(OC)c(CN3CCN(C)CC3)c3c1[C@H](C2)N(C)CC3 [BS-TE-360]
anti-H9 activity increase over tetrandrine ([3]; compared with tetrandrine): ~12 fold
anti-Jurkat activity increase over tetrandrine ([4]; compared with tetrandrine): ~4 fold
anti-RKO activity increase over tetrandrine ([14]; compared with tetrandrine): 22 fold

IC50 [1]: 1.2 µg/mL (≈ 1.8 µM)
IC90 [1]: 1.8 µg/mL (≈ 2.7 µM)
IC50 [2]: 0.89 µg/mL (≈ 1.34 µM)
IC90 [2]: 2.14 µg/mL (≈ 3.21 µM)
IC50 [3]: 0.88 µg/mL (≈ 1.32 µM)
IC90 [3]: 1.35 µg/mL (≈ 2.03 µM)
IC50 [4]: 1.41 µg/mL (≈ 2.12 µM)
IC90 [4]: 3.98 µg/mL (≈ 5.98 µM)
IC50 [5]: 0.96 µg/mL (≈ 1.44 µM)
IC90 [5]: 2.37 µg/mL (≈ 3.56 µM)
IC50 (MG63 (osteosarcoma)): 1.4 µg/mL (≈ 2.1 µM)
IC90 (MG63 (osteosarcoma)): 1.9 µg/mL (≈ 2.85 µM)
IC50 (PC-3 (prostate cancer)): 3.6 µg/mL (≈ 5.41 µM)
IC90 (PC-3 (prostate cancer)): 5.8 µg/mL (≈ 8.71 µM)
IC50 [6]: 1.63 µg/mL (≈ 2.45 µM)
IC90 [6]: 5.16 µg/mL (≈ 7.75 µM)
IC50 [7]: 3.62 µg/mL (≈ 5.44 µM)
IC90 [7]: 6.57 µg/mL (≈ 9.87 µM)
IC50 [8]: 2.5 µg/mL (≈ 3.75 µM)
IC90 [8]: 6.18 µg/mL (≈ 9.28 µM)
IC50 [9]: 0.27 µg/mL (≈ 0.406 µM)
IC90 [9]: 0.64 µg/mL (≈ 0.961 µM)
IC50 [10]: 1.3 µg/mL (≈ 1.95 µM)
IC90 [10]: 2 µg/mL (≈ 3 µM)
IC50 [11]: 1.91 µg/mL (≈ 2.87 µM)
IC90 [11]: 5.21 µg/mL (≈ 7.82 µM)
IC50 [12]: 1.46 µg/mL (≈ 2.19 µM)
IC90 [12]: 5.38 µg/mL (≈ 8.08 µM)
IC50 [13]: 0.75 µg/mL (≈ 1.13 µM)
IC90 [13]: 2.4 µg/mL (≈ 3.6 µM)
IC50 [14]: 0.87 µg/mL (≈ 1.31 µM)
IC90 [14]: 2.22 µg/mL (≈ 3.33 µM)
IC50 [15]: 3.2 µg/mL (≈ 4.81 µM)
IC90 [15]: 4.95 µg/mL (≈ 7.43 µM)
IC50 [16]: 1.15 µg/mL (≈ 1.73 µM)
IC90 [16]: 1.76 µg/mL (≈ 2.64 µM)
IC50 (A549 (human lung cancer)): 1.8 µg/mL (≈ 2.7 µM)
IC90 (A549 (human lung cancer)): 4.9 µg/mL (≈ 7.36 µM)
IC50 [17]: 1.9 µg/mL (≈ 2.85 µM)
IC90 [17]: 3.01 µg/mL (≈ 4.52 µM)
SMILES: CNCc1c2c3c(c(OC)c1OC)Oc1cc4c(cc1OC)CCN(C)[C@H]4Cc1ccc(cc1)Oc1cc(ccc1OC)C[C@@H]3N(C)CC2 [BS-TE-326]

Reference: patent US9133207B2, “Tetrandrine derivatives with substituted 5-carbon, preparation method and use thereof” (Hangzhou Bensheng Pharmaceutical Co., Ltd., priority 2011, dated 2015)
